Experimental data: patent US10704076B2, “Multi-tiered high through-put screen for compounds effective against bacterial biofilm and compounds effective for inhibiting and eradicating bacterial biofilm” (University of Cincinnati, priority 2013, dated 2020)

Experiments:
P. aeruginosa biofilm = assay: HTS live biofilm assay (resazurin metabolic activity); assay type: cell-based; settings: Pseudomonas aeruginosa, 10 point dose-response 0.1-50 μM
Text: Each HTS tier consisted of: (i) primary screening, (ii) confirmation screening and (iii) dose-response curve screening. Each tier of HTS included three distinct biological process assays. The first assay was an optical density measurement of bacteria growth in the presence of each compound reported as a total bacteria growth. In the second assay, resazurin solution was used as an indicator of metabolic activity to measure the live bacteria in the biofilms, reported as live biofilm. The final assay was crystal violet staining, which indicated the amount of biofilm formation and the effect of each compound on this process, reported as total biofilm formation.
Briefly, stationary phase bacteria grown in L-broth were diluted 1:200 into fresh L-broth and 50 μM of each test compound. After 20-24 hours, the optical density (OD560) of each suspension was measured using Zeiss Plate::Vision with a 560 BP filter (560 nm, 2.5% light intensity, 1 mm focus to bottom of plate, and exposure time of 100 ms). To measure bacterial viability in the biofilm, 50 μl of a 5 mg/ml resazurin solution in L-broth was added to each well after washing 3 times with 50 μl of PBS. The plates were then incubated at 37° C. for 30 or 180 min for A. baumannii and P. aeruginosa biofilms, respectively. Fluorescence was measured using Zeiss Plate::Vision at excitation and emission wavelengths of 535 and 580 nm, 100 ms exposure time, 2.5% intensity and a 2 mm focus to the bottom of the biofilms. To assess biofilm formation, plates were washed 3 times with PBS and then 50 μl of 0.01% of crystal violet was added to each well to assess bacterial biofilm formation as described in a similar borosilicate tube assay by O'Toole and Kolter. After incubation at room temperature for 30 min and removal of the crystal violet solution by washing with PBS, 95% ethanol was added to solubilize the crystal violet followed by incubation for 20 min at room temperature. Finally, the optical density of each plate was determined using measured by Zeiss Plate::Vision using the same settings used to measure total bacterial growth. These 3 steps were used in each of the three tiers for the HTS process: (i) single point primary screening at 10 μM, (ii) triplicate confirmation of hits from (i) at 10 μM and (iii) determination of AC50 values in 10 point dose-response at a concentration range of 0.1-50 μM) in hits from (ii). The AC50 represents the concentration of compound that inhibits 50% of bacterial growth, bacterial viability, or biofilm formation. Genedata Screener® Assay Analyzer Software (Ver. 9.0.0 Standard) was used to analyze data from all assay tiers. Compounds with an AC50 of less than 20 μM in one of the biological assays from the dose response screen were subject to additional investigation.

[1] = test system: differentiated THP-1 cells; assay: LDH cytotoxicity assay; assay type: cell-based; settings: 48 hr
Description: Following identification as an HTS broad spectrum hit and confirmation by CLSM, a cytotoxicity assay was performed on compounds 3, 7, 8 and 11. The lactate dehydrogenase assay (LDH) is commonly used as an enzymatic marker to quantitatively correlate cell death via leakage of the enzyme from dead or dying cells. An LDH assay was used to investigate the toxicity of compounds on A549 and differentiated THP-1 cells. […] Finally, 25 μl of Stop Solution was added, incubated at room temperature for 5 min, and the fluorescence signal was detected using a Synergy 2 Multi-Mode Microplate Reader (Ex. […]/Em. 590). The unit of measurement is the Relative Fluorescence Unit (RFU). The cytotoxicity of the compounds was calculated based on the percentage of compound RFUs measured (Experimental) in comparison to the RFU of the DMSO treated cells as those that were completely lysed (Maximum LDH Release). […]
The cytotoxicity of the broad agent hit compounds was examined in differentiated human THP-1, a human acute monocytic leukemia cell line and A549, a human lung adenocarcinoma epithelial cell line. […] Compounds were assessed at varying concentrations of 0, 260, 290, 300, and 570 μM for compounds 7, 11, 8, and 3, respectively, for the cytotoxicity assays. […]

[2] = test system: P. aeruginosa established biofilm; assay: CLSM, effect of compound on the pre-existing biofilm; assay type: cell-based, Pseudomonas aeruginosa

| SMILES | AC50 (P. aeruginosa biofilm) [µM] | cytotoxicity (LDH) ([1]; 57 μM) [%] | cytotoxicity (LDH), change against 57 μM ([1]; 570 μM) | effective on established P. aeruginosa biofilm at 100 μM (CLSM, in words) [2] |
| --- | --- | --- | --- | --- |
| O=C(O)c1cn(C2CC2)c2c(F)c(-c3ccncc3)c(F)cc2c1=O [Compound 11, 7-(4-pyridyl)-1-cyclopropyl-6,8-difluoro-4-oxoquinoline-3-carboxylic acid] | 9.6 |  |  |  |
| Cn1sc(Cl)c(C#N)c1=O [Compound 3, 5-chloro-2-methyl-3-oxo-1,2-thiazole-4-carbonitrile] | 13.4 | 60 | decreased | effective at killing |
| O=C(O)c1cn(C2CC2)c2c(F)c(N3CC(O)C3)c(F)cc2c1=O [Compound 8, 1-cyclopropyl-6,8-difluoro-7-(3-hydroxyazetidin-1-yl)-4-oxoquinoline-3-carboxylic acid] | 57 |  |  |  |
| NC(=S)N1CCN(c2cc3c(cc2F)c(=O)c(C(=O)O)cn3C2CC2)CC1 [Compound 7, 7-(4-carbamothioylpiperazin-1-yl)-1-cyclopropyl-6-fluoro-4-oxoquinoline-3-carboxylic acid] | 0.38 |  |  | effective |
